The values that follow come from BindingDB's records for doi:10.1016/j.ejmech.2018.09.061 (Anhui University of Chinese Medicine, 2018).

This data set can be described thus: Inhibition of MDR1 in human KB/VCR cells assessed as potentiation of vincristine-induced cytotoxicity by measuring vincristine IC50 at 25 uM after 72 hrs by Western blot analysis (Rvb = 4.21 +/- 0.33 uM). (In general: In western blotting, separated proteins are transferred to a membrane and probed.)

One may read the IC50 as the concentration at which inhibition is half-maximal. `CC(C)C(=O)OC(C)(C)[C@@H]1Cc2c(ccc3ccc(=O)oc23)O1`: the concentration for half-maximal inhibition (IC50) amounted to 560 nM.
